The values that follow are results of earlier work, collected in US6433175B1, “Pyrroloindoles, pyridoindoles and azepinoindoles as 5-ht2c agonists” (Vernalis Research Limited, priority 1998, dated 2002).

Each structure is given as a SMILES string.

Data set [1] deals with rats. To be noted: cited from earlier work.
The conditions of data set [2]: cited from earlier work.

`Clc1cccc(N2CCNCC2)c1` [mCPP, m-chlorophenylpiperazine]: the “food intake in rats” value in data set [1] is “reduce food intake”. Also, the “appetite and body weight of obese subjects” value in data set [2] (obese male and female subjects, subchronic treatment for 14 days) was “decreased the appetite and body weight”. In addition, in data set [2] (single dose, female volunteers), the “food intake in female volunteers” value is “decreased food intake”.
